Results as given in patent publication US20260327225A1, “HETEROCYCLIC COMPOUNDS AS TRIGGERING RECEPTOR EXPRESSED ON MYELOID CELLS 2 AGONISTS AND METHODS OF USE” (VIGIL NEUROSCIENCE, INC., priority 2023, published 2026).

Molecular target: T1, human TREM2 (Homo sapiens, UniProt Q9NZC2)
T1 construct: expressed in transfected cells; host or cells: HEK293T-hTREM2 cells (HEK cell line expressing human TREM2 and DAP12)
Assay: TREM2 agonist potency by cellular phosphorylation of Syk (AlphaLisa) in HEK293T-hTREM2 cells expressing human TREM2 and DAP12
Assay type: cell-based
Conditions: HEK293 cells expressing hTREM2 and DAP12; 45 minutes at room temperature; Syk phosphorylation, AlphaLisa; read-out: hTREM2 EC50
Procedure: In vitro Measurement of Triggering Receptor Expressed on Myeloid Cells 2 activity using cellular phosphorylation of Spleen Tyrosine Kinase (“Syk”) Assays
Measurement of TREM2 agonist potency was done using a HEK cell line expressing human TREM2 and DAP12 (HEK293T-hTREM2 cells). Binding of small molecules to, and activation of, TREM2 increases the phosphorylation of Syk. The resultant levels of Syk phosphorylation are measured using a commercial AlphaLisa reagent kit. To perform the assay, HEK-hTREM2 cells were plated at 14,000 cells per well in a 384 well plate, in 25 μL of complete growth media and incubated at 37° C., 5% CO2 for 20-24 hours.
Prior to the assay, test compounds were diluted in the 384 well plates in assay buffer and allowed to equilibrate for 30 minutes. Growth media was removed from cell plates by inversion on blotting paper, and 25 μL of test articles in assay buffer was added to cells. Cells were incubated for 45 minutes at room temperature. After 45 minutes, assay buffer was removed and 10 μL of lysis buffer was added. Plates were shaken for 20 minutes at 350 RPM at room temperature. After complete lysis, AlphaLisa reagents were added to the lysate, and fluourescence intensity was measured using a Perkin Elmer Envision plate reader. Intensities were used to generate a standard curve, and % activation was calculated. Curve fitting was performed using Prism v9 software, log(agonist) vs response—variable slope (four parameters), and EC50s were calculated from the curve fit.
The results presented in Table B have been generated with the in vitro assay described above. This assay may be used to test any of the compounds described herein to assess and characterize a compound's ability to act as an agonist of TREM2.

T1 sequence (Q9NZC2 19-230): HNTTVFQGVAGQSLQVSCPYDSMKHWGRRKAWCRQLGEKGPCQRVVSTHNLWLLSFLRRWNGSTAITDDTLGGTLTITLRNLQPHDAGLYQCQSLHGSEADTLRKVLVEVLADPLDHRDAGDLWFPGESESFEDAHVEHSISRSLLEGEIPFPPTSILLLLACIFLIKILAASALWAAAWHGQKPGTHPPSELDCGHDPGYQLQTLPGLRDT
T1 sequence (O43914 22-113 partner): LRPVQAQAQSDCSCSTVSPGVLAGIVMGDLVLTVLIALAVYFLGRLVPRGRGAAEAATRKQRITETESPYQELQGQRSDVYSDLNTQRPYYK

| EC50 [nM] | SMILES |
| --- | --- |
| 100 to 500 | CO[C@H]1CN(c2nc(-c3ccc(F)cc3F)c3nc(C)c(C)nc3n2)C[C@@H]1c1cn(C2CC2)nn1 (stereo in doubt) [Example 134, 2-[3-(1-cyclopropyl-triazol-4-yl)-4-methoxy-pyrrolidin-1-yl]-4-(2,4-difluorophenyl)-6,7-dimethyl-pteridine formic acid] |
| < 100 | COC(=O)c1cc2c(-c3ccc(F)cc3F)nc(N3C[C@@H](C)O[C@@H](c4cnn(C5CC5)c4)C3)nc2nc1C [Example 1, methyl 2-[(2S,6R)-2-(1-cyclopropylpyrazol-4-yl)-6-methyl-morpholin-4-yl]-4-(2,4-difluorophenyl)-7-methyl-pyrido[2,3-d]pyrimidine-6-carboxylate] |
| > 500 | Cc1nc2nc(N3C[C@@H](C)O[C@@H](c4cnn(C5CC5)c4)C3)nc(-c3ccc(F)cc3F)c2cc1C(=O)N(C)C [Example 2, 2-((2S,6R)-2-(1-cyclopropyl-1H-pyrazol-4-yl)-6-methylmorpholino)-4-(2,4-difluorophenyl)-N,N-7-trimethylpyrido[2,3-d]pyrimidine-6-carboxamide] |
| > 500 | Cc1nc2nc(N3C[C@@H](C)O[C@@H](c4cnn(C5CC5)c4)C3)nc(-c3ccc(F)cc3F)c2cc1C(=O)O [Example 3, 2-[(2S,6R)-2-(1-cyclopropylpyrazol-4-yl)-6-methyl-morpholin-4-yl]-4-(2,4-difluorophenyl)-7-methyl-pyrido[2,3-d]pyrimidine-6-carboxylic acid] |
| < 100 | CC(=O)c1cc2c(-c3ccc(F)cc3F)nc(N3C[C@@H](C)O[C@@H](c4cnn(C5CC5)c4)C3)nc2nc1C [Example 4, 1-[2-[(2S,6R)-2-(1-cyclopropylpyrazol-4-yl)-6-methyl-morpholin-4-yl]-4-(2,4-difluorophenyl)-7-methyl-pyrido[2,3-d]pyrimidin-6-yl]ethanone] |
| < 100 | CO/N=C(\C)c1cc2c(-c3ccc(F)cc3F)nc(N3C[C@@H](C)O[C@@H](c4cnn(C5CC5)c4)C3)nc2nc1C [Example 5, 1-[2-[(2S,6R)-2-(1-cyclopropylpyrazol-4-yl)-6-methyl-morpholin-4-yl]-4-(2,4-difluorophenyl)-7-methyl-pyrido[2,3-d]pyrimidin-6-yl]-N-methoxy-ethanimine] |
| < 100 | Cc1noc(-c2cc3c(-c4ccc(F)cc4F)nc(N4C[C@@H](C)O[C@@H](c5cnn(C6CC6)c5)C4)nc3nc2C)n1 [Example 6, (2S,6R)-2-(1-cyclopropylpyrazol-4-yl)-4-[4-(2,4-difluorophenyl)-7-methyl-6-(3-methyl-1,2,4-oxadiazol-5-yl)-pyrido[2,3-d]pyrimidin-2-yl]-6-methyl-morpholine] |
| < 100 | Cc1nc2nc(N3C[C@@H](C)O[C@@H](c4cnn(C5CC5)c4)C3)nc(-c3ccc(F)cc3F)c2cc1C1=NCCO1 [Example 7, (2S,6R)-2-(1-cyclopropylpyrazol-4-yl)-4-[4-(2,4-difluorophenyl)-6-(4,5-dihydrooxazol-2-yl)-7-methyl-pyrido[2,3-d]pyrimidin-2-yl]-6-methyl-morpholine] |
| < 100 | COC(=O)c1cc2c(-c3ccc(F)cc3F)nc([C@H]3CCO[C@@H](c4cnn(C5CC5)c4)C3)nc2nc1C [Example 8, methyl 2-((2R,4S)-2-(1-cyclopropyl-1H-pyrazol-4-yl)tetrahydro-2H-pyran-4-yl)-4-(2,4-difluorophenyl)-7-methylpyrido[2,3-d]-pyrimidine-6-carboxylate] |
| > 500 | Cc1nc2nc([C@H]3CCO[C@@H](c4cnn(C5CC5)c4)C3)nc(-c3ccc(F)cc3F)c2cc1C(=O)O [Example 9, 4-(2,4-difluorophenyl)-7-methyl-2-[(2R,4S)-2-(1-cyclopropylpyrazol-4-yl)tetrahydropyran-4-yl]pyrido[2,3-d]pyrimidine-6-carboxylic acid] |
| < 100 | Cc1nnc(-c2cc3c(-c4ccc(F)cc4F)nc(N4C[C@@H](C)O[C@@H](c5cnn(C6CC6)c5)C4)nc3nc2C)s1 [Example 10, (2S,6R)-2-(1-cyclopropylpyrazol-4-yl)-4-[4-(2,4-difluorophenyl)-7-methyl-6-(5-methyl-1,3,4-thiadiazol-2-yl)pyrido[2,3-d]pyrimidin-2-yl]-6-methyl-morpholine] |
| < 100 | Cc1cc(-c2cc3c(-c4ccc(F)cc4F)nc(N4C[C@@H](C)O[C@@H](c5cnn(C6CC6)c5)C4)nc3nc2C)on1 [Example 11, (2S,6R)-2-(1-cyclopropylpyrazol-4-yl)-4-[4-(2,4-difluorophenyl)-7-methyl-6-(3-methylisoxazol-5-yl)pyrido[2,3-d]pyrimidin-2-yl]-6-methyl-morpholine] |
| < 100 | Cc1nnc(-c2cc3c(-c4ccc(F)cc4F)nc(N4C[C@@H](C)O[C@@H](c5cnn(C6CC6)c5)C4)nc3nc2C)o1 [Example 12, (2S,6R)-2-(1-cyclopropylpyrazol-4-yl)-4-[4-(2,4-difluorophenyl)-7-methyl-6-(5-methyl-1,3,4-oxadiazol-2-yl)pyrido[2,3-d]pyrimidin-2-yl]-6-methyl-morpholine] |
| < 100 | Cc1cnc(-c2cc3c(-c4ccc(F)cc4F)nc(N4C[C@@H](C)O[C@@H](c5cnn(C6CC6)c5)C4)nc3nc2C)o1 [Example 13, (2S,6R)-2-(1-cyclopropylpyrazol-4-yl)-4-[4-(2,4-difluorophenyl)-7-methyl-6-(5-methyloxazol-2-yl)pyrido[2,3-d]pyrimidin-2-yl]-6-methyl-morpholine] |
| > 500 | Cc1noc(-c2cc3c(-c4ccc(F)cc4F)nc(N4CCCC(N5CCOCC5)C4)nc3nc2C)n1 (centres unmarked) [Example 15, 4-[1-[4-(2,4-difluorophenyl)-7-methyl-6-(3-methyl-1,2,4-oxadiazol-5-yl)pyrido[2,3-d]pyrimidin-2-yl]-3-piperidyl]morpholine] |
| < 100 | Cc1nc2nc([C@H]3CCO[C@@H](c4cnn(C5CC5)c4)C3)nc(-c3ccc(F)cc3F)c2cc1C#N [Example 18, 2-[(2R,4S)-2-(1-cyclopropylpyrazol-4-yl)tetrahydropyran-4-yl]-4-(2,4-difluorophenyl)-7-methyl-pyrido[2,3-d]pyrimidine-6-carbonitrile] |
| < 100 | Cc1nc2nc(N3C[C@@H](C)O[C@@H](c4cnn(C5CC5)c4)C3)nc(-c3ccc(F)cc3F)c2cc1C#N [Example 21, 2-[(2S,6R)-2-(1-cyclopropylpyrazol-4-yl)-6-methyl-morpholin-4-yl]-4-(2,4-difluorophenyl)-7-methyl-pyrido[2,3-d]pyrimidine-6-carbonitrile] |
| < 100 | Cc1noc(-c2cc3c(C45CC(C(F)(F)F)(C4)C5)nc(N4C[C@@H](C)O[C@@H](c5cnn(C6CC6)c5)C4)nc3nc2C)n1 [Example 22, (2S,6R)-2-(1-cyclopropyl-pyrazol-4-yl)-6-methyl-4-[7-methyl-6-(3-methyl-1,2,4-oxadiazol-5-yl)-4-[3-(trifluoromethyl)-1-bicyclo[1.1.1]pentanyl]-pyrido[2,3-d]pyrimidin-2-yl]morpholine] |
| < 100 | Cc1nnc(-c2cc3c(C45CC(C(F)(F)F)(C4)C5)nc([C@H]4CCO[C@@H](c5cnn(C6CC6)c5)C4)nc3nc2C)o1 [Example 23, 2-(2-((2R,4S)-2-(1-cyclopropyl-1H-pyrazol-4-yl)tetrahydro-2H-pyran-4-yl)-7-methyl-4-(3-(trifluoromethyl)bicyclo[1.1.1]pentan-1-yl)pyrido[2,3-d]pyrimidin-6-yl)-5-methyl-1,3,4-oxadiazole] |
| < 100 | Cc1nc2nc([C@H]3CCO[C@@H](c4cnn(C5CC5)c4)C3)nc(C34CC(C(F)(F)F)(C3)C4)c2cc1F [Example 24, 2-[(2R,4S)-2-(1-cyclopropylpyrazol-4-yl)tetrahydropyran-4-yl]-6-fluoro-7-methyl-4-[3-(trifluoromethyl)-1-bicyclo[1.1.1]pentanyl]-pyrido[2,3-d]pyrimidine] |
| < 100 | Cc1nc2nc(N3C[C@@H](C)O[C@@H](c4cnn(C5CC5)c4)C3)nc(C34CC(C(F)(F)F)(C3)C4)c2cc1C#N [Example 25, 2-[(2S,6R)-2-(1-cyclopropylpyrazol-4-yl)-6-methyl-morpholin-4-yl]-7-methyl-4-[3-(trifluoromethyl)-1-bicyclo[1.1.1]pentanyl]pyrido[2,3-d]pyrimidine-6-carbonitrile] |
| < 100 | Cc1nc2nc([C@H]3CCO[C@@H](c4cnn(C5CC5)c4)C3)nc(C34CC(C(F)(F)F)(C3)C4)c2cc1-c1cnn(C)c1 [Example 26, 2-((2R,4S)-2-(1-cyclopropyl-1H-pyrazol-4-yl)tetrahydro-2H-pyran-4-yl)-7-methyl-6-(1-methyl-1H-pyrazol-4-yl)-4-(3-(trifluoromethyl)bicyclo[1.1.1]pentan-1-yl)pyrido[2,3-d]pyrimidine] |
| 100 to 500 | Cc1nc2nc([C@H]3CCO[C@@H](c4cnn(C5CC5)c4)C3)nc(C34CC(C(F)(F)F)(C3)C4)c2cc1-c1ccn(C)n1 [Example 27, 2-((2R,4S)-2-(1-cyclopropyl-1H-pyrazol-4-yl)tetrahydro-2H-pyran-4-yl)-7-methyl-6-(1-methyl-1H-pyrazol-3-yl)-4-(3-(trifluoromethyl)-bicyclo[1.1.1]pentan-1-yl)pyrido[2,3-d]pyrimidine] |
